Where two headings read alike, the source gives them in different places.
Columns and labels:
3HA-hCB1 = 3HA-hCB1 (Homo sapiens, UniProt P21554); test: CAMYEL BRET cAMP signalling assay, HEK cells expressing CB1 alone; format: cell-based; settings: for Emax (% inhib of Fsk), ± SEM / pEC50 ± SEM: CB1 cell line; for cAMP response in the cell line expressing only CB1: CB1-alone HEK line, 5 μM forskolin
myc-h5HT1a and 3HA-hCB1 [1] = format: cell-based, human; settings: 5HT1a/CB1 cell line
C57BL/6 mice = test: THC drug discrimination in mice; format: in vivo, mouse; settings: for Effect on response rates compared to vehicle: alone or in combination with 3 mg/kg pFPP, either sex; for AMB-FUBINACA ED50 (95% confidence limits), + Saline: with saline
Long Evans rats = test: Plethysmography and telemetry in rats
[2] = AMB-FUBINACA metabolism in human liver microsomes; format: in vitro ADME; settings: pFPP 0.59, 1.18, 2.36 μg/ml
[3] = AMB-FUBINACA metabolism in rat liver microsomes; format: in vitro ADME; settings: pFPP 0.59, 1.18, 2.36 μg/ml
myc-h5HT1a and 3HA-hCB1 [4] = target: T1, myc-h5HT1a and 3HA-hCB1 (Homo sapiens, UniProt P08908); format: cell-based; settings: 5HT1a/CB1 cell line, in the presence of 31.6 nM 8OH-DPAT
T1 sequence (P08908 1-422): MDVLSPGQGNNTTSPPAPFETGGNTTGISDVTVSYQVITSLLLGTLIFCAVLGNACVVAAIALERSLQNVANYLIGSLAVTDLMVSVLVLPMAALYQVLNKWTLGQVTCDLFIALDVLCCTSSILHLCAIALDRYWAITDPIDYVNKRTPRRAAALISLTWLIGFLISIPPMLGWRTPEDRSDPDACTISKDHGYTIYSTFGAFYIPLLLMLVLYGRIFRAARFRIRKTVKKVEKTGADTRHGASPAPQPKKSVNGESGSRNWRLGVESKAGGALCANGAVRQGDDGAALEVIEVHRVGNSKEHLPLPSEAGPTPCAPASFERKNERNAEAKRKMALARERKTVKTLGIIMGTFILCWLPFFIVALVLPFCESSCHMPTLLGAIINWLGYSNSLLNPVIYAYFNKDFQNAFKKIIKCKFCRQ

5HT1a = settings: ref Scherman et al., 1988; cited from earlier work
myc-h5HT1a = target: T2, myc-h5HT1a (Homo sapiens, UniProt P08908); test: CAMYEL BRET cAMP signalling assay, HEK cells expressing 5HT1a alone; format: cell-based; settings: 5HT1a-alone cell line, in the presence of 31.6 nM 8OH-DPAT
T2 sequence (P08908 1-422): T1 sequence (P08908 1-422)

[5] = inhibition of 5 μM forskolin-induced cAMP, drug alone

Sequence of 3HA-hCB1 (P21554 whole entry): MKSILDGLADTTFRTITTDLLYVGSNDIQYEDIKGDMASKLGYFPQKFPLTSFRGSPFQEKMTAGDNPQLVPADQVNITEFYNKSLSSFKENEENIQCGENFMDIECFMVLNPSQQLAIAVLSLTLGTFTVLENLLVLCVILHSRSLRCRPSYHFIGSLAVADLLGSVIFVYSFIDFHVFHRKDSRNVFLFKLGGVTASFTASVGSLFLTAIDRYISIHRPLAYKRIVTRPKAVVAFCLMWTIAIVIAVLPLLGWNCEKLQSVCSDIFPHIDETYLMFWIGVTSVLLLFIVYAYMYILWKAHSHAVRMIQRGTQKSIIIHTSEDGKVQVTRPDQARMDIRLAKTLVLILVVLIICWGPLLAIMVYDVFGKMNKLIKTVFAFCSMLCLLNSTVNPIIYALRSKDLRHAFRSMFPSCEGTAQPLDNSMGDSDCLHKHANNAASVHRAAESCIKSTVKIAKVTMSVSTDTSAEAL

SMILES: COC(=O)[C@@H](NC(=O)c1nn(Cc2ccc(F)cc2)c2ccccc12)C(C)C [AMB-FUBINACA]
- Emax (% inhib of Fsk), ± SEM (3HA-hCB1; + WAY100635 (1 μM)): 55.7 ± 5.78 % inhib of Fsk
- pEC50 ± SEM (3HA-hCB1; + WAY100635 (1 μM)): 9.65 ± 0.14
- Emax (% inhib of Fsk), ± SEM (3HA-hCB1; + pFPP (31.6 μM)): 57.9 ± 2.33 % inhib of Fsk
- pEC50 ± SEM (3HA-hCB1; + pFPP (31.6 μM)): 9.70 ± 0.16
- Emax (% inhib of Fsk), ± SEM (3HA-hCB1; drug alone): 60.8 ± 1.7 % inhib of Fsk
- pEC50 ± SEM (3HA-hCB1; [5]): 9.56 ± 0.09
- Emax (% inhib of Fsk), ± SEM (myc-h5HT1a and 3HA-hCB1 [1]; + WAY100635 (1 μM)): 59.4 ± 9.17 % inhib of Fsk
- pEC50 ± SEM (myc-h5HT1a and 3HA-hCB1 [1]; + WAY100635 (1 μM)): 9.11 ± 0.16
- Emax (% inhib of Fsk), ± SEM (myc-h5HT1a and 3HA-hCB1 [1]; + pFPP (31.6 μM)): 64.9 ± 3.5 % inhib of Fsk
- pEC50 ± SEM (myc-h5HT1a and 3HA-hCB1 [1]; + pFPP (31.6 μM)): 9.39 ± 0.11
- Emax (% inhib of Fsk), ± SEM (myc-h5HT1a and 3HA-hCB1 [1]; drug alone): 61.0 ± 1.7 % inhib of Fsk
- pEC50 ± SEM (myc-h5HT1a and 3HA-hCB1 [1]; [5]): 9.21 ± 0.14
- Effect on response rates compared to vehicle (C57BL/6 mice): neither cannabinoid (alone or in combination with pFPP) significantly affected response rates
- Potency relative to THC in drug discrimination (C57BL/6 mice; both sexes, more potent than THC): 49-70 fold
- AMB-FUBINACA ED50 (95% confidence limits), + Saline (C57BL/6 mice; female mice, i.p.): 0.03 mg/kg (0.006-0.14)
- AMB-FUBINACA ED50 (95% confidence limits), + Saline (C57BL/6 mice; male mice, i.p.): 0.03 mg/kg (0.007-0.14)
- Duration of decreases in heart rate (Long Evans rats; 0.3 mg/kg AMB-FUBINACA alone): approximately half of the post-injection session
- Effect on respiratory minute volume (Long Evans rats; 0.3 mg/kg AMB-FUBINACA alone, early in the session): transient decrease
- Time until which significant hypothermia continued (Long Evans rats; 0.3 mg/kg AMB-FUBINACA combined with 10 mg/kg pFPP): 165 min
- Time after injection by which hypothermic effect dissipated (Long Evans rats; 0.3 mg/kg AMB-FUBINACA i.p. alone): ≤ 135 min
- Duration of significant decreases in heart rate (Long Evans rats; 1 mg/kg AMB-FUBINACA alone): during most of the post-injection session
- Effect on respiratory minute volume (Long Evans rats; 1 mg/kg AMB-FUBINACA alone and with 10 mg/kg pFPP, part or all of the post-injection session): significantly decreased minute volume
- Duration of significant hypothermia (Long Evans rats; 1 mg/kg AMB-FUBINACA combined with 10 mg/kg pFPP): throughout the session
- Duration of hypothermic effect (Long Evans rats; 1 mg/kg AMB-FUBINACA i.p. alone): endured for the entire 240-min post-injection measurement period
- Effect on temperature (Long Evans rats; 0.03 and 0.1 mg/kg AMB-FUBINACA i.p.): no significant effect
- Onset of significant hypothermic effect post-injection (Long Evans rats; 0.3 and 1 mg/kg AMB-FUBINACA combined with 10 mg/kg pFPP, vs pFPP alone): 75 min
- Effect on temperature vs vehicle/saline (Long Evans rats; 0.3 and 1 mg/kg AMB-FUBINACA i.p. alone, one or more post-injection time points): produced hypothermia
- Effect on heart rate (Long Evans rats; 0.3 and 1 mg/kg AMB-FUBINACA i.p., alone or with 10 mg/kg pFPP): decreased heart rate

SMILES: Fc1ccc(N2CCNCC2)cc1 [pFPP, para-fluorophenylpiperazine]
- Effect on AMB-FUBINACA metabolism [2]: not altered by any concentration of pFPP
- Effect on AMB-FUBINACA metabolism [3]: not altered by any concentration of pFPP
- cAMP response in the cell line expressing only CB1 (3HA-hCB1): no pFPP response was observed
- Antagonism of cAMP inhibition by 8OH-DPAT (myc-h5HT1a and 3HA-hCB1 [4]): not observed to have any antagonist effect
- pEC50 ± SEM (myc-h5HT1a and 3HA-hCB1 [1]; [5]): ~5.20 ± 0.18^$
- previously reported affinity (pKi) (5HT1a): 6.52
- Cannabimimetic (THC-like discriminative stimulus) effects (C57BL/6 mice; 3 mg/kg pFPP by itself): did not produce cannabimimetic effects by itself
- Effect on potency of THC-like discriminative stimulus effects of THC or AMB-FUBINACA (C57BL/6 mice; 3 mg/kg pFPP co-administered): nor did it alter the potency
- Effect on response rates (C57BL/6 mice; 10 mg/kg pFPP alone, probe tests, data not shown): substantial decreases in response rates
- Effect on heart rate in comparison to vehicle (Long Evans rats; 10 mg/kg pFPP alone, i.p.): only early and transient decreases
- Effect on respiratory minute volume across the post-injection session (Long Evans rats; 10 mg/kg pFPP alone, i.p.): significant decrease
- Effect on temperature in comparison to vehicle (Long Evans rats; 10 mg/kg pFPP alone, i.p.): only early and transient decreases
- Effect of co-administration on duration of AMB-FUBINACA heart rate decreases (Long Evans rats; 10 mg/kg pFPP with 0.3 or 1 mg/kg AMB-FUBINACA): shortened the duration
- Antagonism of cAMP inhibition by 8OH-DPAT (myc-h5HT1a): not observed to have any antagonist effect

SMILES: CCCCCc1cc(O)c2c(c1)OC(C)(C)[C@@H]1CCC(C)=C[C@@H]21 [THC, Δ^9-tetrahydrocannabinol]
- Effect on response rates compared to vehicle (C57BL/6 mice): neither cannabinoid (alone or in combination with pFPP) significantly affected response rates
- THC ED50 (95% confidence limits), Alone (C57BL/6 mice; female mice, i.p., trained to discriminate 5.6 mg/kg THC from vehicle): 1.46 mg/kg (0.62-3.40)

SMILES: CCCN(CCC)C1CCc2cccc(O)c2C1 (centres unmarked) [8OH-DPAT, 8-hydroxy DPAT]
- cAMP response in the cell line expressing only CB1 (3HA-hCB1): without showing activity
- Emax (% inhib of Fsk), ± SEM (myc-h5HT1a and 3HA-hCB1 [1]; drug alone): 66.6 ± 1.3 % inhib of Fsk
- pEC50 ± SEM (myc-h5HT1a and 3HA-hCB1 [1]; [5]): 8.39 ± 0.21

— paper PMC10020421 (Pharmacology, biochemistry, and behavior, 2023)
